Data on 19 molecules can be found in patent US20250179059A1 (The Regents of the University of California, priority 2021, published 2025).

Each structure is given as a SMILES string. Where two headings read alike, the source gives them in different places.

Experiment [1] has as its target T1, human BRD4 bromodomain I (Homo sapiens, UniProt O60885).
T1 construct: human BRD4 bromodomain I [residues 44-170]; host or cells: E. coli
The experiment in a line: Bromodomain binding assay (AlphaScreen), BRD4 BDI. The settings on record: Table C1. On the procedure: Bromodomain Binding Assay
The bromodomain binding assay utilizes AlphaScreen technology. Compounds compete with a biotinylated peptide ligand (from histone H4: aa 1-21, K5/K8/K12/K16Ac-biotin) for binding to a hexahistidine (His6)-tagged bromodomain. Peptide binding is detected by fluorescence signal after singlet oxygen energy transfer from peptide-bound AlphaScreen streptavidin-coated donor beads to His6-tagged bromodomain-bound nickel-chelate acceptor beads (PerkinElmer). Briefly, 8 μL 2.5× bromodomain (E. coli expressed, N-terminal His6-tagged human BRD4 bromodomain II [based on Genbank NM_058243, residues 349-460] or N-terminal His6-tagged human BRD4 bromodomain I [residues 44-170]) in reaction buffer (50 mM HEPES [pH 7.5], 100 mM NaCl, 0.05% CHAPS, 0.1% BSA, 1% DMSO) is added to wells of an assay plate (384-well low flange white, flat bottom, polystyrene microplate, Corning #3572; buffer only is added to some wells as a negative control). A compound concentration series (10 concentrations, 3-fold serial dilutions previously prepared in 100% DMSO, or 100% DMSO only negative control) is delivered to the assay plate with an Echo 550 acoustic liquid handler (Labcyte), followed by plate centrifugation and incubation for 30 minutes at room temperature. Then 4 μL 5× biotinylated peptide ligand is added, followed by plate centrifugation and gentle shaking for 30 minutes at room temperature to mix. After this incubation, 4 μL 5× donor beads are added, and the plate is centrifuged, followed by brief gentle shaking to mix. Finally, 4 μL 5× acceptor beads are added, and the plate is centrifuged, followed by gentle shaking for 60 minutes at room temperature in the dark. AlphaScreen signal (excitation/emission: 680 nm/520-620 nm) is detected with an EnSpire multimode plate reader (PerkinElmer). Percentage peptide binding is plotted as a function of concentration, and curve fitting is used to determine competitive compound binding ICsos.
(In general: Alpha assays give light when donor and acceptor beads are brought close together.)

Experiment [2] addresses T2, human BRD4 bromodomain II (Homo sapiens, UniProt O60885).
T2 construct: human BRD4 bromodomain II [based on Genbank NM_058243, residues 349-460]; host or cells: E. coli
The experiment in a line: Bromodomain binding assay (AlphaScreen), BRD4 BDII. The settings on record: AlphaScreen assay, read-out: BRD4 BDII IC50. The procedure, abridged:
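Read-out is AlphaScreen signal (ex 680 nm, em 520-620 nm) from streptavidin donor beads on a biotinylated acetylated histone H4 (aa 1-21) peptide and nickel acceptor beads on the His6-tagged bromodomain. IC50 values come from curve fits of percentage peptide binding against compound concentration.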

Experiment [3] deals with human SKM-1 acute myeloid leukemia cells. The experiment in a line: SKM-1 antiproliferation cell-based assay (ATPlite). The note with it: Homo sapiens, SKM-1, 96 h, SKM-1 antiproliferation assay, 4 days, Table C2. Summed up:
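Log-phase cells in RPMI 1640/15% FBS were seeded at 34722 cells/mL and exposed for 4 days to nine-concentration DMSO serial dilutions in triplicate. Viability was read as ATP luminescence (ATPlite 1step), and IC50 values came from variable-slope non-linear regression.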
(In general: Cellular ATP, detected with luciferase, serves as a proxy for viable cell number.)

One may read the IC50 as the concentration needed to halve the response being measured. The GI50 is the concentration that inhibits growth by half. Low readings indicate greater sensitivity of the cells, high ones lower sensitivity of the cells. As for `CN1CCN(c2ccc(-c3cccc(-c4ccnc(N5CCNCC5)c4)c3O)cc2Cl)C1=O` [Example 245, 1-(3-Chloro-2′-hydroxy-3′-(2-(piperazin-1-yl)pyridin-4-yl)-[1,1′-biphenyl]-4-yl)-3-methylimidazolidin-2-one], the IC50 in experiment [1] was > 100 nM; in experiment [2] (Table C1), 1 to 10 nM; in experiment [2] (Table C2) it was 1 to 10 nM. Also, the GI50 in experiment [3] fell in the range of 30 to 300 nM.
In the case of `CC(=O)Nc1ccc(-c2cccc(-c3cccc(N4CCNCC4)c3)c2O)cc1F` [Example 109, N-(3-Fluoro-2′-hydroxy-3″-(piperazin-1-yl)-[1,1′:3′,1″-terphenyl]-4-yl)acetamide], the IC50 in experiment [1] is > 100 nM; in experiment [2] (Table C1), 1 to 10 nM; in experiment [2] (Table C2) it was 1 to 10 nM. In experiment [3], the GI50 lay in the range of 300 to 3000 nM.
Take `C[C@@H]1CN(c2cc(-c3cc(F)cc(-c4ccc(-n5ccn(C)c5=O)c(Cl)c4)c3O)ccn2)CCN1` [Example 413, (R)-1-(3-chloro-5′-fluoro-2′-hydroxy-3′-(2-(3-methylpiperazin-1-yl)pyridin-4-yl)-[1,1′-biphenyl]-4-yl)-3-methyl-1H-imidazol-2(3H)-one]: the results for the IC50 in experiment [1], in experiment [2] (Table C1) and in experiment [2] (Table C2) were > 100 nM, 0.01 to 1 nM and 0.01 to 1 nM, respectively. The same molecule came in with a GI50 in experiment [3] of 0.3 to 30 nM.
As for `CC(=O)Nc1ccc(-c2cccc(-c3cc(N4CCN(C)CC4)no3)c2O)cc1` [Example 6, N-(2′-Hydroxy-3′-(3-(4-methylpiperazin-1-yl)isoxazol-5-yl)-[1,1′-biphenyl]-4-yl)acetamide], the IC50 in experiment [1] is > 100 nM; in experiment [2] (Table C1), 10 to 100 nM; in experiment [2] (Table C2), 10 to 100 nM.
For `CC(=O)Nc1ccc(-c2cccc(-c3cccc(N4CCOCC4)c3)c2O)cc1F` [Example 95, N-(3-Fluoro-2′-hydroxy-3″-morpholino-[1,1′:3′,1″-terphenyl]-4-yl)acetamide], the half-inhibitory concentration (IC50) in experiment [1] is > 100 nM; in experiment [2] (Table C1) it was 10 to 100 nM; in experiment [2] (Table C2), 10 to 100 nM.
Consider `CC(=O)Nc1ccc(-c2cccc(-c3cccc(N4CCNCC4)c3)c2O)cc1Cl` [Example 171, N-(3-chloro-2′-hydroxy-3″-(piperazin-1-yl)-[1,1′:3′,1″-terphenyl]-4-yl)acetamide], for which the IC50 in experiment [1] is > 100 nM; in experiment [2] (Table C1), 1 to 10 nM; in experiment [2] (Table C2), 1 to 10 nM.
As to `Cn1ccn(-c2ccc(-c3cc(F)cc(-c4ccnc(N5CCNCC5)c4)c3O)cc2Cl)c1=O` [Example 365, 1-(3-chloro-5′-fluoro-2′-hydroxy-3′-(2-(piperazin-1-yl)pyridin-4-yl)-[1,1′-biphenyl]-4-yl)-3-methyl-1H-imidazol-2(3H)-one], the IC50 in experiment [1] was > 100 nM; in experiment [2] (Table C1), 1 to 10 nM; in experiment [2] (Table C2), 1 to 10 nM. In experiment [3], the GI50 was in the range of 0.3 to 30 nM.
For `CN1CCN(c2ccc(-c3cc(F)cc(-c4ccnc(N5CCNCC5)c4)c3O)cc2Cl)C1=O` [Example 297, 1-(3-chloro-5′-fluoro-2′-hydroxy-3′-(2-(piperazin-1-yl)pyridin-4-yl)-[1,1′-biphenyl]-4-yl)-3-methylimidazolidin-2-one], the IC50 in experiment [1] was > 100 nM; in experiment [2] (Table C1) it was 1 to 10 nM; in experiment [2] (Table C2) it was 1 to 10 nM. This molecule had a GI50 in experiment [3] of 30 to 300 nM.
Consider `CC(=O)Nc1ccc(-c2cccc(-c3ccnc(N4CCNCC4)c3)c2O)cc1F` [Example 163, N-(3-fluoro-2′-hydroxy-3′-(2-(piperazin-1-yl)pyridin-4-yl)-[1,1′-biphenyl]-4-yl)acetamide], for which the IC50 in experiment [1] is > 100 nM; in experiment [2] (Table C1), 1 to 10 nM; in experiment [2] (Table C2), 1 to 10 nM. For the same molecule, the GI50 in experiment [3] was 30 to 300 nM.
With `CC(=O)Nc1ccc(-c2cccc(-c3cc(N4CCNCC4)no3)c2O)cc1` [Example 3, N-(2′-Hydroxy-3′-(3-(piperazin-1-yl)isoxazol-5-yl)-[1,1′-biphenyl]-4-yl)acetamide], the IC50 was > 100 nM in experiment [1], 10 to 100 nM in experiment [2] (Table C1) and 10 to 100 nM in experiment [2] (Table C2).
As for `Cn1ccn(-c2c(Cl)cc(-c3cc(F)cc(-c4ccnc(N5CCNCC5)c4)c3O)cc2Cl)c1=O` [Example 408, 1-(3,5-dichloro-5′-fluoro-2′-hydroxy-3′-(2-(piperazin-1-yl)pyridin-4-yl)-[1,1′-biphenyl]-4-yl)-3-methyl-1H-imidazol-2(3H)-one], the IC50 in experiment [2] (Table C2) was in the range of 10 to 100 nM. In addition, in experiment [3], the GI50 was 300 to 3000 nM.
`Cn1ccn(-c2ccc(-c3cc(F)cc(-c4ccnc(N5CCNC6(CC6)C5)c4)c3O)cc2Cl)c1=O` [Example 559, 1-(3′-(2-(4,7-diazaspiro[2.5]octan-7-yl)pyridin-4-yl)-3-chloro-5′-fluoro-2′-hydroxy-[1,1′-biphenyl]-4-yl)-3-methyl-1H-imidazol-2(3H)-one]: in experiment [2] (Table C2), the IC50 lay in the range of 0.01 to 1 nM. Moreover, the GI50 in experiment [3] was 30 to 300 nM.
The corresponding values for `O=C1CCCN1c1ccc(-c2cc(Cl)cc(-c3ccnc(N4CCNCC4)c3)c2O)cc1Cl` [Example 274, 1-(3,5′-dichloro-2′-hydroxy-3′-(2-(piperazin-1-yl)pyridin-4-yl)-[1,1′-biphenyl]-4-yl)pyrrolidin-2-one] are 1 to 10 nM and 30 to 300 nM.
The corresponding values for `Cn1ccn(-c2ccc(-c3cc(F)cc(-c4ccc(=O)n(C5CCNCC5)c4)c3O)cc2Cl)c1=O` [Example 486, 5-(3′-chloro-5-fluoro-2-hydroxy-4′-(3-methyl-2-oxo-2,3-dihydro-1H-imidazol-1-yl)-[1,1′-biphenyl]-3-yl)-1-(piperidin-4-yl)pyridin-2(1H)-one] are 1 to 10 nM and 30 to 300 nM.
The corresponding values for `Cn1ccn(-c2ccc(-c3cc(F)cc(-c4cc(NC(=O)C5CC5)nc(N5CC[C@H](N)C5)c4)c3O)cc2Cl)c1=O` [Example 525, (S)-N-(6-(3-aminopyrrolidin-1-yl)-4-(3′-chloro-5-fluoro-2-hydroxy-4′-(3-methyl-2-oxo-2,3-dihydro-1H-imidazol-1-yl)-[1,1′-biphenyl]-3-yl)pyridin-2-yl)cyclopropanecarboxamide] are 1 to 10 nM and 0.3 to 30 nM.
Consider `Cc1cc(-c2ccc(-n3ccn(C)c3=O)c(Cl)c2)c(O)c(-c2cc(N3CCN[C@H](C)C3)c3nccnc3c2)c1` [Example 574], for which the IC50 in experiment [2] (Table C2) was 0.01 to 1 nM. In addition, in experiment [3], the GI50 lay in the range of 0.3 to 30 nM.
The corresponding values for `Cn1ccn(-c2ccc(-c3cc(F)cc(-c4ccnc(N5CCN[C@H](CN)C5)c4)c3O)cc2Cl)c1=O` [Example 680, (R)-1-(3′-(2-(3-(aminomethyl)piperazin-l-yl)pyridin-4-yl)-3-chloro-5′-fluoro-2′-hydroxy-[1,1′-biphenyl]-4-yl)-3-methyl-1H-imidazol-2(3H)-one] are 0.01 to 1 nM and 30 to 300 nM.
The corresponding values for `CO[C@@H]1COC(=O)N1c1ccc(-c2cc(F)cc(-c3ccnc(N4CCNCC4)c3)c2O)cc1Cl` [Example 507, (R)-3-(3-chloro-5′-fluoro-2′-hydroxy-3′-(2-(piperazin-1-yl)pyridin-4-yl)-[1,1′-biphenyl]-4-yl)-4-methoxyoxazolidin-2-one] are 10 to 100 nM and 300 to 3000 nM.
On the same counts, the results for `Cc1cc(-c2cncc(N3CC[C@H](N)C3)c2)c(O)c(-c2ccc(-n3ccn(C)c3=O)c(Cl)c2)c1` [Example 509, (S)-1-(3′-(5-(3-aminopyrrolidin-1-yl)pyridin-3-yl)-3-chloro-2′-hydroxy-5′-methyl-[1,1′-biphenyl]-4-yl)-3-methyl-1H-imidazol-2(3H)-one] are 1 to 10 nM and 0.3 to 30 nM.
